Data set [1] is described as follows: Ice nucleation kinetics of picoliter-sized drops of D2O and H2O mixtures (droplet technology). It counts as physicochemical. The text has this: FIG. 7. Probability distribution of ice nucleation temperature using nanodroplet technology, wherein condition 1 is pure heavy water containing 0.1 g/L SNOMAX, condition 2 is pure water containing 0.1 g/L SNOMAX, condition 3 is pure heavy water, and condition 4 is pure water.
This disclosure has also systematically investigated the ice nucleation kinetics of picoliter-sized drops of heavy water (e.g., D2O or T2O) and light water (H2O) mixtures with freeze-dried P. syringae. […] The disclosure further investigated the effects of commonly used cryoprotectants such as ethylene glycol, propylene glycol and trehalose on the freezing characteristics of D2O and H2O mixtures. […] Furthermore, several cryoprotectants are found to depress the freezing phenomenon. Both the homogeneous and heterogeneous freezing temperatures of these aqueous solutions depend on the water activity and are independent of the nature of solute.
A self-nucleating and preservation formulation comprising heavy water and ice nucleating agents was developed with broad applications in the field of cryopreservation. […]

For another data set, the system named is animals and animal cells. The settings on record: at normal body temperatures; cited from earlier work.
For data set [2] the following is noted: background statement; cited from earlier work.

For `[2H]O[2H]` [D2O], the “shift of the ice nucleation kinetics profile per 25% (v/v) increase of D2O concentration” value in data set [1] (D2O+H2O mixtures containing 1 mg/ml SNOMAX) is “shifts by about one degree”. Moreover, the median nucleation temperature in data set [1] (pure D2O, no ice nucleating agent, droplet technology) is −32.1 °C. For the same molecule, the “concentration that can be toxic” value in the data set on animals and animal cells is listed as “more than 20%”.

B1: ice nucleation active (INA) protein: ice nucleation active protein InaZ of Pseudomonas syringae (UniProt P06620-1; SEQ ID NO: 1) (protein, listed as Pseudomonas syringae)
chain: MNLDKALVLRTCANNMADHCGLIWPASGTVESRYWQSTRRHENGLVGLLWGAGTSAFLSVHADARWIVCEVAVADIISLEEPGMVKFPRAEVVHVGDRISASHFISARQADPASTSTSTLTPMPTAIPTPMPAVASVTLPVAEQARHEVFDVASVSAAAAPVNTLPVTTPQNVQTATYGSTLSGDNHSRLIAGYGSNETAGNHSDLIAGYGSTGTAGSDSWLVAGYGSTQTAGGDSALTAGYGSTQTAREGSNLTAGYGSTGTAGSDSSLIAGYGSTQTSGGDSSLTAGYGSTQTAQEGSNLTAGYGSTGTAGSDSSLIAGYGSTQTSGGDSSLTAGYGSTQTAQEGSNLTAGYGSTGTAGVDSSLIAGYGSTQTSGSDSALTAGYGSTQTAQEGSNLTAGYGSTGTAGSDSSLIAGYGSTQTSGSDSSLTAGYGSTQTAQEGSILTAGYGSTGTAGVDSSLIAGYGSTQTSGSDSALTAGYGSTQTAQEGSNLTAGYGSTGTAGADSSLIAGYGSTQTSGSESSLTAGYGSTQTAREGSTLTAGYGSTGTAGADSSLIAGYGSTQTSGSESSLTAGYGSTQTAQQGSVLTSGYGSTQTAGAASNLTTGYGSTGTAGHESFIIAGYGSTQTAGHKSILTAGYGSTQTARDGSDLIAGYGSTGTAGSGSSLIAGYGSTQTASYRSMLTAGYGSTQTAREHSDLVTGYGSTSTAGSNSSLIAGYGSTQTAGFKSILTAGYGSTQTAQERTSLVAGYGSTSTAGYSSSLIAGYGSTQTAGYESTLTAGYGSTQTAQENSSLTTGYGSTSTAGYSSSLIAGYGSTQTAGYESTLTAGYGSTQTAQERSDLVTGYGSTSTAGYASSLIAGYGSTQTAGYESTLTAGYGSTQTAQENSSLTTGYGSTSTAGFASSLISGYGSTQTAGYKSTLTAGYGSTQTAEYGSSLTAGYGSTATAGQDSSLIAGYGSSLTSGIRSFLTAGYGSTLIAGLRSVLIAGYGSSLTSGVRSTLTAGYGSNQIASYGSSLIAGHESIQVAGNKSMLIAGKGSSQTAGFRSTLIAGAGSVQLAGDRSRLIAGADSNQTAGDRSKLLAGNNSYLTAGDRSKLTGGHDCTLMAGDQSRLTAGKNSVLTAGARSKLIGSEGSTLSAGEDSILIFRLWDGKRYRQLVARTGENGVEADIPYYVNEDDDIVDKPDEDDDWIEVK
Consider B1, for which the “temperature at which water freezes” value in data set [2] is −4 to −2 °C.
